Results reported in patent publication US12605358B2, “Composition for preventing or treating nervous system diseases comprising compound that inhibits mTOR signaling pathway as active ingredient” (ALIAD BIOPHARMA, priority 2021, dated 2026).

How the values were obtained:
[1] = system: primary cultured neurons; assay: LC3-II turnover analysis (LC3 immunoblot); format: cell-based, rat; settings: FIG. 3B
[2] = system: 5xFAD transgenic mice; assay: Morris water maze test; format: in vivo; settings: 5, 10 and 20 mg/kg groups; similar to the normal group
Procedure: 5xFAD animals were administered with HN-1703 at three doses for 14 days to male heterozygotes aged 6 months (all born within 3 days). The behaviors of mice were measured in a dark cycle in which the mice were active while alternating light and dark in a 12-hour cycle in a breeding room chamber, and the mice were freely accessible to food and water and bred in compliance with experimental animal ethical guidelines of Kyung Hee University. […] Behavioral measures were measured in Y-maze, Morris Water Maze, and Passive Avoidance test for 18 days in sequence.
A Morris water maze test designed by Richard Morris to test spatial memory was performed on a round and rust-free pool with a white inner-surface (diameter 120 cm; height 60 cm). […] On the first day, the mice were trained in free swimming for 1 minute without a platform foothold, and from the second day, while the mice were trained for 1 minute to find the platform using a spatial clue above the water tank by dissolving dye in water so as not to see the foothold, 6 mice or more were set to a group and put into a quadrant once after taking a sufficient rest, and measured by a video camera. […] The captured video pictures were analyzed with a video tracking system (Ethovision water maze program, Noldus Information Technology, Wageningen, Netherlands). […]

[3] = system: 5xFAD transgenic mice; assay: Neuroinflammation, Iba-1 staining of brain slices; format: in vivo; settings: hippocampal dentate gyrus; compared to a 5xFAD-DMSO control group; FIG. 11
Procedure: (§1) 5xFAD animals were administered with HN-1703 at three doses for 14 days to male heterozygotes aged 6 months (all born within 3 days). The behaviors of mice were measured in a dark cycle in which the mice were active while alternating light and dark in a 12-hour cycle in a breeding room chamber, and the mice were freely accessible to food and water and bred in compliance with experimental animal ethical guidelines of Kyung Hee University. In each group, the HN-1703 was intraperitoneally injected at the same time once a day in a volume of 100 μl to 12 mice in a normal group (wild type littermate), 9 5xFAD mice in a vehicle (DMSO administration), 8 5xFAD mice in a 5 mg/kg administered group, 9 5xFAD mice in a 10 mg/kg administered group, and 9 5xFAD mice in a 20 mg/kg administered group. […] In a behavioral measurement room, humidity (40 to 60%) and temperature (22 to 26° C.) were maintained, and reflected light was maintained to avoid sound and light effects. Behavioral measures were measured in Y-maze, Morris Water Maze, and Passive Avoidance test for 18 days in sequence.
A brain slice immunostaining method was modified and used as described in Heo H et al. (J Ethnopharmacol, 2009). Mice were transcardially perfused with 4% PFA. […]

[4] = system: 5xFAD transgenic mice; assay: Autophagy indicators in brain (LC3/GFAP and LC3/MAP2 staining, LC3 immunoblot); format: in vivo
Procedure: as §1
A brain slice immunostaining method was modified and used as described in Heo H et al. (J Ethnopharmacol, 2009). Mice were transcardially perfused with 4% PFA. After being immersed and fixed in 4% PFA for 4 hours, the brain tissue was unfrozen in 30% sucrose, frozen in an optimal cutting temperature (OCT) mixture, and stored at −80° C. Brain tissue slices were sectioned in a coronal direction at a thickness of 35 μm. The brain tissue slices were immersed in a storage solution (30% glycerol, 30% ethylene glycol, PBS) and stored at 4° C. The stored brain slices were permeabilized in 0.5% Triton X-100 for 20 minutes and shaken in 2 N HCl for 30 minutes at 37° C. Then, the brain slices were blocked in a free-floating state for 2 hours in 15% standard serum, 3% bovine serum albumin (BSA, bio-WORLD, Dublin, OH, USA) and 0.1% Triton X-100. The slices were shaken with a first antibody for 16 hours at 4° C. Thereafter, a second antibody complementary to the first antibody was attached at room temperature (22±1° C.) for 45 minutes. Then, the nuclei were washed with physiological saline (PBS) containing 1 μg/ml PI (propidiumiodide, Sigma) or DAPI (1:4000), and then placed on a slide glass and sealed using an aqueous mount, and observed under a confocal scanning microscope for tissue observation (LSM 810 Carl Zeiss, Oberkochen, Germany).
The first antibody used antibodies such as LC3-II (MBL, PM036), MAP2 (sigma, m4403) [for LC3/MAP2 double staining], 6E10 (biolegend, 803001) [for LC3/6E10; ICC double staining], GFAP (abcam, ab53554) [for LC3/GFAP double staining], Iba-1 (wako, 011-27991) [for LC3/IBA1 double staining], Iba-1 (Wako, 019-19741) [for ThioS/Iba1/PI triple staining], Sox2 (R&D system, MAB2018) [for SOX2/DCX/NeuN triple staining], DCX (Santa Cruz, sc8066) [for SOX2/DCX/NeuN triple staining], AT8 (Invitrogen, MN1020) [for AT8/MAP2 double staining], MAP2 (abcam, ab32454) [for AT8/MAP2 double staining], NeuN (Millipore, MAB377B), Tuj1 (Sigma, T8660), Nestin (Millipore, MAB353), GFAP (Chemicon), and the like, and the second antibody used Alexa 488, Cy3, Alexa 488 (Invitrogen, A21202), Cy3 (Jackson lab, 715-165-151), and Alexa 488 (Jackson lab, 711-546-152).
When PS1 was KO, lysosome acidification was weakened and autophagy was inhibited (Lee et al. (2010) Cell 141: 1146-1158), and in 5xFAD mice with mutations in PS1, the generation of autophagy was somewhat attenuated and may be activated in the presence of endogenous WT PS1. In other words, there were example in which cellular conditions that inhibit mTOR, such as lack of amino acids, or suppression of inflammation activated autophagy, and treatment with a cAMP or β-adrenergic agonist restored lysosomal acidification in PS1 mutant cells (Coffey et al. (2014) Neuroscience 263: 111-124). […]

COc1cc(OC)c2c(=O)c3cc4c(cc3oc2c1)OCO4 [HN-1703, 7,9-dimethoxy-10H-[1,3]dioxolo[4,5-b]xanthen-10-one]
LC3-II formation compared to the control group ([1]; in the presence of bafilomycin A1, a lysosome mature inhibitor): significantly increased LC3-II formation | LC3-II (autophagy activation marker) compared to the control group ([1]; up to 36 hours after treating the compound): significantly increased LC3-II | water maze latency time after 4 days of training [2]: about 35 seconds | Iba-1 staining (activated microglia) [3]: significantly reduced | LC3-II staining ([4]; 5 mg/kg to 10 mg/kg, FIG. 12): stained at the level of a WT normal group | LC3-II increase compared to the 5xFAD-DMSO control group ([4]; 20 mg/kg, FIG. 12): 2.5 times | LC3-II increase compared to the WT normal group ([4]; 20 mg/kg, FIG. 12): 1.4 times | LC3-II staining in the axon of the hippocampal pyramidal neuron ([4]; 20 mg/kg, FIG. 13): recovered to the level of the WT normal group | autophagic vacuoles near the nuclei of large neurons in the subgranular cell layer of the hippocampus ([4]; FIG. 14): significantly increased | ratio of the autophagy activation marker LC3-II/LC3-I (brain immunoblot) ([4]; FIG. 15): increased | LC3-II staining ([4]; hippocampal dentate gyrus, compared to a 5xFAD-DMSO control group, FIG. 12): increased in a dose-dependent manner | astrocytes stained with the GFAP antibody ([4]; increased in 5xFAD-DMSO vs WT, FIG. 12): decreased to a normal level
